Experiments:
Type in all cases: cell-based
LXFL-529L cells = test: Cellular uptake by LXFL-529L cells; conditions: 2 hours; for distribution particular: cellular organelles
Protocol: The amounts of the substances which were taken up by the cells are given depending on the concentration of the substance within the incubation medium. The time of incubation was 2 hours in all of the experiments. Furthermore, distribution between cytosol and the cellular organelles (particular) was measured and is given in the last two columns of Table 3.

[1] = tested on: cells of the mammary carcinoma cell line MCF-7; test: Tumor cell growth inhibition, SRB-assay, MCF-7; conditions: 50% growth inhibition, three days incubation in serum-containing medium
[2] = tested on: cells of the large-cell lung carcinoma of the tumor line LXFL-529L; test: Tumor cell growth inhibition, SRB-assay, LXFL-529L; conditions: 50% growth inhibition, three days incubation in serum-containing medium
[3] = concentration of incubation 10 μM
[4] = concentration of incubation 20 μM
[5] = concentration of incubation 50 μM

Row | Compound | distribution particular (LXFL-529L cells; [3]) | distribution particular (LXFL-529L cells; [4]) | amount taken up (LXFL-529L cells; [3]) | distribution cytosol (LXFL-529L cells; [3]) | amount taken up (LXFL-529L cells; [4]) | distribution cytosol (LXFL-529L cells; [4]) | IC50 [1] | IC50 [2] | distribution particular (LXFL-529L cells; [5]) | amount taken up (LXFL-529L cells; [5]) | distribution cytosol (LXFL-529L cells; [5])
1 | CCc1ccc2c(c1)C(=C1Nc3ccccc3C1=NO)C(=O)N2 [Example 26, 5-ethyl-indirubin-3′-monooxime] | 82 ± 6% | 89 ± 5% | 0.10 ± 0.03 μg/mg protein | 18 ± 3% | 0.13 ± 0.05 μg/mg protein | 11 ± 3% | 7 ± 0.9 µM | 6 ± 0.6 µM | – | – | –
2 | CCc1ccc2c(c1)/C(=C1/Nc3ccccc3C1=O)C(=O)N2 [Example 2, 5-ethyl-indirubin] | 90 ± 6% | 95 ± 3% | 0.20 ± 0.05 μg/mg protein | 10 ± 2% | 0.22 ± 0.07 μg/mg protein | 5 ± 2% | 7 ± 0.2 µM | 7 ± 0.2 µM | – | – | –
3 | 3-{3′-[iminooxy-O-(2-D-glucopyranosylethyl)]-(2′H3′H)indol-2′-ylidene}-(2H3H)indol-2-one [Example 48] | 87 ± 7% | 95 ± 6% | 0.20 ± 0.05 μg/mg protein | 13 ± 3% | 0.25 ± 0.04 μg/mg protein | 5 ± 1% | 3.5 ± 0.6 µM | 21 ± 1.5 µM | – | – | –
4 | Nc1ccc2c(c1)C(=C1Nc3ccccc3C1=O)C(=O)N2 [Example 15, 5-amino-indirubin] | 85 ± 4% | 94 ± 4% | 0.25 ± 0.04 μg/mg protein | 15 ± 2% | 0.29 ± 0.05 μg/mg protein | 6 ± 1% | 5 ± 0.5 µM | 8 ± 0.7 µM | – | – | –
5 | Cc1ccc2c(c1)C(=C1Nc3ccccc3C1=NO)C(=O)N2 [Example 25, 5-methyl-indirubin-3′-monooxime] | 80 ± 5% | 84 ± 4% | 0.12 ± 0.03 μg/mg protein | 20 ± 4% | 0.15 ± 0.04 μg/mg protein | 16 ± 3% | 6 ± 0.9 µM | 6 ± 0.8 µM | 90 ± 8% | 0.18 ± 0.06 μg/mg protein | 10 ± 4%
6 | O=C1Nc2ccc(CC(=O)N3CCNCC3)cc2C1=C1Nc2ccccc2C1=O [Example 6, 5-[2-(piperazin-1-yl)-ethan-2-one-1-yl]-indirubin] | – | – | – | – | – | – | 8 ± 0.9 µM | 4 ± 0.5 µM | – | – | –
7 | NCC(=O)Nc1ccc2c(c1)C(=C1Nc3ccccc3C1=O)C(=O)N2 [Example 18, 2-amino-N-[3-(3′-oxo-(2′H3′H)indol-2′-ylidene)-(2H3H)indol-2-one-5-yl]-acetamide] | – | – | – | – | – | – | 3 ± 0.3 µM | 4 ± 0.4 µM | – | – | –
8 | O=C1Nc2ccccc2C1=C1Nc2ccccc2C1=NOCCO [Example 31] | 93 ± 7% | 93 ± 6% | 0.27 ± 0.06 μg/mg protein | 7 ± 1% | 0.31 ± 0.07 μg/mg protein | 7 ± 2% | 2.5 ± 0.4 µM | 1.5 ± 0.4 µM | – | – | –
9 | 3-{3′-[iminooxy-O-(2-(2-amino-2-deoxy-D-glucopyranosyl)-ethyl)]-(2′H3′H)indol-2′-ylidene}-(2H3H)indol-2-one [Example 53] | – | – | – | – | – | – | 7 ± 0.7 µM | 15 ± 0.9 µM | – | – | –
10 | O=C1Nc2ccccc2C1=C1Nc2ccccc2C1=NOCCCCCCCCCCN(CCO)CCO [Example 62] | – | – | – | – | – | – | 13.5 ± 1.3 µM | 14 ± 1 µM | – | – | –
11 | CCOC(=O)ON=C1C(=C2C(=O)Nc3ccccc32)Nc2ccccc21 [Example 39, 3-[3′-(iminooxy-O-carbethoxy)-(2′H3′H)indol-2′-ylidene]-(2H3H)indol-2-one] | – | – | – | – | – | – | 10 ± 0.9 µM | 4.5 ± 0.7 µM | – | – | –
12 | CC(N)C(=O)Nc1ccc2c(c1)C(=C1Nc3ccccc3C1=O)C(=O)N2 (stereo not shown) [Example 19, 2-amino-N-[3-(3′-oxo-(2′H3′H)indol-2′-ylidene)-(2H3H)indol-2-one-5-yl]-propionamide] | – | – | – | – | – | – | 5 ± 0.6 µM | 7 ± 0.7 µM | – | – | –
13 | NCCNC(=O)Cc1ccc2c(c1)C(=C1Nc3ccccc3C1=O)C(=O)N2 [Example 8, N-(2-amino-ethyl)-2-[3-(3′-oxo-(2′H3′H)indol-2′-ylidene)-(2H3H)indol-2-one-5-yl]-acetamide] | – | – | – | – | – | – | 4 ± 0.6 µM | 3.5 ± 0.7 µM | – | – | –
14 | 3-[3′-[iminooxy-O-(N-(1-deoxy-glucitol)-2-amino-ethyl)]-(2H′3H′)indol-2′-ylidene]-5-methyl-(2H3H)indol-2-one [Example 69] | – | – | – | – | – | – | 2.5 ± 0.9 µM | 3.5 ± 0.7 µM | – | – | –
15 | O=C1Nc2ccc(CC(=O)N3CCOCC3)cc2C1=C1Nc2ccccc2C1=O [Example 7, 5-[2-(morpholin-4-yl)-ethan-2-one-1-yl]-indirubin] | – | – | – | – | – | – | 7.5 ± 0.6 µM | 5.5 ± 0.7 µM | – | – | –
16 | Nc1ccc2c(c1)C(=C1Nc3ccccc3C1=NO)C(=O)N2 [Example 28, 5-amino-indirubin-3′-monooxime] | 90 ± 6% | 94 ± 5% | 0.20 ± 0.06 μg/mg protein | 10 ± 2% | 0.23 ± 0.05 μg/mg protein | 90 ± 6% | 5 ± 0.8 µM | 7.5 ± 0.4 µM | – | – | –
17 | CC(C)c1ccc2c(c1)C(=C1Nc3ccccc3C1=NO)C(=O)N2 [Example 27, 5-isopropyl-indirubin-3′-monooxime] | – | – | – | – | – | – | 5 ± 0.9 µM | 5.5 ± 0.6 µM | – | – | –
18 | O=C1Nc2ccccc2C1=C1Nc2ccccc2C1=NOCCN(CCO)CCO [Example 60, 3-{3′-[iminooxy-O-((N,N)-bis(hydroxyethyl)-2-amino-ethyl)]-(2′H3′H)indol-2′-ylidene}-(2H3H)indol-2-one] | – | – | – | – | – | – | 4.5 ± 0.5 µM | 3 ± 0.4 µM | – | – | –
19 | CCCc1ccc2c(c1)C(=C1Nc3ccccc3C1=O)C(=O)N2 [Example 4, 5-n-propyl-indirubin] | – | – | – | – | – | – | 6.5 ± 0.5 µM | 7 ± 0.4 µM | – | – | –
20 | 3-{3′-[iminooxy-O-(2-(2-amino-ethyl)-amino-ethyl)]-(2′H3′H)indol-2′-ylidene}-(2H3H)indol-2-one [Example 66] | – | – | – | – | – | – | 8 ± 1.2 µM | 7 ± 0.6 µM | – | – | –
